Data from patent publication US20170009228A1, “BIOLOGICAL MATERIALS AND THERAPEUTIC USES THEREOF” (IMPERIAL INNOVATIONS LIMITED, priority 2014, published 2017).

How the values were obtained:
[1] = system: IL-1; test: Addition of IL-1 receptor antagonist before FBG stimulation; format: cell-based; details: 10 μg/ml IL1 receptor antagonist, data not shown
Procedure: (§1) Where stated, cells were pre-incubated with 10 μg/ml anti-CD14 antibody, 10 μg/ml IL1 receptor antagonist, 10 μg/ml anti-TLR2 antibody, 25 μg/ml anti-TLR4 antibody, 10 or 25 μg/ml isotype control antibody, 25 μg/ml polymyxin B, or 1 μg/ml msbB LPS, for 30 minutes at 37° C. before stimulation. Where stated, recombinant tenascin-C and FBG, and LPS were boiled for 15 minutes before addition to cells
(§2) Supernatants were subsequently examined for the presence of the cytokines TNF-α, IL-6, and IL-8 by enzyme-linked immunosorbent assay (ELISA) according to the manufacturer's instructions. Absorbance was read on a spectrophotometric ELISA plate reader (Labsystems Multiscan Biochromic, Vantaa, Finland) and analyzed using the Ascent software program (Thermo Labsystems, Altrincham, UK).

[2] = system: primary human macrophages; test: Cytokine synthesis in primary human macrophages stimulated with tenascin-C or its domains; format: cell-based
Procedure: Human monocytes were isolated from peripheral blood (London Blood Bank) and macrophages were derived from monocytes after differentiation for 4 days with 100 ng/ml of M-CSF as previously described (Foxwell (1998)).
(§3) Immediately after isolation, RA membrane cells and macrophages were cultured at 1×10^5 cells/well in RPMI 1640 containing 10% (v/v) FBS and 100 U/ml (Units/ml) penicillin/streptomycin in 96-well tissue culture plates for 24 hours before stimulation. Synovial fibroblasts (used only at either passage number 2 or 3) were cultured at 1×10^4 cells/well in DMEM containing 10% (v/v) FBS and 100 U/ml penicillin/streptomycin in 96-well tissue culture plates for 24 hours before stimulation.
(§4) Cells were incubated for 24 hours at 37° C. with the indicated doses of tenascin-C and recombinant tenascin-C fragments (1.0 μM-1.0 nM). Cells were also stimulated where indicated with LPS (1 ng/ml for human macrophages, 10 ng/ml for human fibroblasts, RA membrane cells and HEKs, 100 ng/ml for MEFS and BMDMs and 10 ng/ml for HEKS), PAM3 (10 ng/ml for human macrophages, human fibroblasts, and HEKs, 100 ng/ml for MEFs and BMDMs), murine IL-1 (5 ng/ml for MEFS) and murine TNF-α (100 ng/ml for MEFS). Unless specifically stated otherwise rough LPS was used for in vitro studies.
as §1, §2

[3] = system: RA synovial fibroblasts; test: Cytokine synthesis in RA synovial fibroblasts stimulated with tenascin-C, FBG or LPS; format: cell-based, human
Description: RA membrane cells (representing a mixed population of all synovial cell types) were isolated from synovial membranes obtained from patients undergoing joint replacement surgery as previously described (Brennan (1989)). RA synovial fibroblasts were isolated from the mixed population of RA membrane cells as previously described (Brennan (1989)). The study was approved by the local Trust ethics committee (Riverside NHS Research Committee), and waste tissue (synovium after joint replacement surgery) was obtained only after receiving signed informed consent from the patient and anonymyzing the tissue to protect patient identity.
as §3, §4, §2

[4] = system: serum from RA patients; test: Western blot of citrullinated tenascin-C probed with serum from RA patients or healthy controls; format: binding, human; details: sera from RA patients or normal healthy controls, not shown
Procedure: SDS PAGE of Citrullinated Proteins 33.33 ul of citrullination reaction (cit-TNC alone or cit-TNC combined with cit-FBG) was loaded into NuPAGE® Novex 4-12% Bis-tris gel using a 1.0 mm 2D single lane well.
After electrophoresis proteins were transferred to nitrocellulose and the membrane blocked and then cut into strips (up to 8 strips ˜0.7 cm wide). Strips were incubated with serum from RA patients or normal healthy individuals diluted 1:100 in 5% milk TBS-tween. Strips were incubated in 15 ml falcon tubes on rollers 1 h room temperature, then washed 3 ×5 min, 1×15 min in tubes with TBS-Tween. Strips were then incubated with secondary mouse anti-human Ig 1:5000 1 h in room temperature, then washed 3×5 min, 1×15 min in the dish with TBS-tween. Strips were finally incubated with ECL reagents and exposed to film.

Substance	FBG induction of cytokines [1]	heat and polymyxin B sensitivity of cytokine stimulation ([2]; boiled 15 min, 25 μg/ml polymyxin B pre-incubation)	production of TNF-α, IL-6 and IL-8 ([2]; human macrophages, 24 h, 1.0 μM-1.0 nM)	IL-6 synthesis ([3]; RA synovial fibroblasts, 24 h)	TNF-α synthesis ([3]; fibroblasts, data not shown)	reactivity with sera in blots [4]
IL-1 receptor antagonist: IL-1 receptor antagonist from R&D Systems	did not inhibit					
tenascin-C: recombinant full-length human tenascin-C purified from HEK293 conditioned medium		heat sensitive and unaffected by the LPS inhibitor, polymyxin B	dose dependently stimulated	only induced IL-6 synthesis	Neither LPS nor tenascin-C induced TNF-α synthesis	No reactivity
